Data published in ChEMBL document CHEMBL1201862, “PubChem BioAssay data set” (2004).
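Assay format: 96-well plates, 48-hour exposure. GI50 marks 50% less growth.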 Calls of active or inactive are those of the source. No stated cut-off is given here; in the data, active = GI50 up to about 1.1 µM and inactive = higher.

Experiments:
Assay in all cases: NCI tumour cell line growth inhibition, 48 h
CAKI-1 = tested on: CAKI-1
CCRF-CEM = tested on: CCRF-CEM
COLO 205 = tested on: COLO 205
EKVX = tested on: EKVX
HOP-62 = tested on: HOP-62
HOP-92 = tested on: HOP-92
IGROV-1 = tested on: IGROV-1
K562 = tested on: K562
LOX IMVI = tested on: LOX IMVI
MOLT-4 = tested on: MOLT-4
Malme-3M = tested on: Malme-3M
OVCAR-3 = tested on: OVCAR-3
OVCAR-4 = tested on: OVCAR-4
RXF 393 = tested on: RXF 393
SF-268 = tested on: SF-268
SF-539 = tested on: SF-539
SK-MEL-28 = tested on: SK-MEL-28
SN12C = tested on: SN12C
DU-145 = tested on: DU-145
UO-31 = tested on: UO-31

Measured: GI50

Cc1ccc2c(CC(=O)O)cc(=O)oc2c1
inactive: CAKI-1 > 100 µM | CCRF-CEM > 100 µM | COLO 205 > 100 µM | EKVX > 100 µM | HOP-62 > 100 µM | HOP-92 > 100 µM | IGROV-1 > 100 µM | K562 > 100 µM | LOX IMVI > 100 µM | MOLT-4 > 100 µM | Malme-3M > 100 µM | OVCAR-3 > 100 µM | OVCAR-4 > 100 µM | RXF 393 3.72 µM | SF-268 > 100 µM | SF-539 > 100 µM | SK-MEL-28 > 100 µM | SN12C > 100 µM

c1ncn(C23C4C5C6C4C2C6C53)n1 (stereo not drawn)
inactive: CCRF-CEM > 100 µM | COLO 205 > 100 µM | DU-145 > 100 µM | EKVX > 100 µM | HOP-62 > 100 µM | IGROV-1 > 100 µM | K562 > 100 µM | LOX IMVI > 100 µM | MOLT-4 > 100 µM | SF-268 > 100 µM | SF-539 > 100 µM | SK-MEL-28 > 100 µM | SN12C > 100 µM

Oc1ccc(I)c2cccnc12
inactive: CCRF-CEM 2.42 µM | COLO 205 27.2 µM | EKVX 9.27 µM | HOP-62 14.8 µM | HOP-92 15.9 µM | IGROV-1 8.18 µM | K562 2.93 µM | LOX IMVI 8.26 µM | MOLT-4 2.96 µM | Malme-3M 7.55 µM | OVCAR-3 4.82 µM | OVCAR-4 26.4 µM | RXF 393 6.82 µM | SF-268 7.45 µM | SF-539 12.5 µM | SK-MEL-28 40.1 µM | SN12C 13.4 µM | UO-31 6.98 µM

COC(=O)/C(=N\NC(=O)c1ccccc1O)C(C#N)c1ccccc1 (stereo not drawn)
inactive: CAKI-1 27.7 µM | CCRF-CEM 19.4 µM | COLO 205 > 50 µM | EKVX 18.4 µM | HOP-62 20.7 µM | HOP-92 19.9 µM | IGROV-1 19.5 µM | K562 16.4 µM | LOX IMVI 19.4 µM | MOLT-4 22.3 µM | Malme-3M 21.4 µM | OVCAR-3 16.6 µM | OVCAR-4 > 43.2 µM | RXF 393 16.5 µM | SF-268 23.5 µM | SF-539 14.8 µM | SK-MEL-28 > 50 µM | SN12C 37.4 µM | UO-31 12.9 µM

CCCN(CCCC(NC(C)=O)C(=O)NCc1ccccc1)C(=O)N(C)N=O (stereo not drawn)
inactive: CAKI-1 > 100 µM | CCRF-CEM > 100 µM | COLO 205 > 100 µM | EKVX > 100 µM | HOP-62 > 100 µM | HOP-92 > 100 µM | IGROV-1 > 100 µM | K562 > 100 µM | LOX IMVI > 100 µM | MOLT-4 77.6 µM | Malme-3M > 100 µM | OVCAR-3 > 100 µM | OVCAR-4 > 100 µM | RXF 393 > 100 µM | SF-268 > 100 µM | SF-539 > 100 µM | SK-MEL-28 > 100 µM | SN12C > 100 µM

Cc1ccc(NC(=O)C(=O)Cc2cc[n+]([O-])cc2)cc1
inactive: CAKI-1 > 100 µM | CCRF-CEM > 100 µM | COLO 205 > 100 µM | EKVX > 100 µM | HOP-62 > 100 µM | HOP-92 > 100 µM | IGROV-1 > 100 µM | K562 > 100 µM | LOX IMVI > 100 µM | MOLT-4 > 100 µM | Malme-3M > 100 µM | OVCAR-3 > 100 µM | OVCAR-4 > 100 µM | RXF 393 > 100 µM | SF-268 > 100 µM | SF-539 > 100 µM | SK-MEL-28 > 100 µM | SN12C > 100 µM | UO-31 > 100 µM

Cc1c2ccccc2c(C)c2c3c(ccc12)C(=O)C=CC3=O
inactive: CAKI-1 22.1 µM | CCRF-CEM 2.49 µM | COLO 205 15.7 µM | EKVX 30.2 µM | HOP-62 > 44.5 µM | HOP-92 15.1 µM | IGROV-1 20 µM | K562 11.3 µM | LOX IMVI 25.8 µM | MOLT-4 2.26 µM | Malme-3M 29 µM | OVCAR-3 17.8 µM | OVCAR-4 23.4 µM | RXF 393 13 µM | SF-268 18.4 µM | SF-539 35.6 µM | SK-MEL-28 30.7 µM | SN12C 27.8 µM | UO-31 18.2 µM

COP(=O)(CC(=O)C1OC(C)(C)OC1C(O)COCc1ccccc1)OC (stereo not drawn)
inactive: CAKI-1 > 100 µM | CCRF-CEM > 100 µM | COLO 205 > 100 µM | EKVX > 100 µM | HOP-62 > 100 µM | HOP-92 > 100 µM | IGROV-1 > 100 µM | K562 > 100 µM | LOX IMVI > 100 µM | MOLT-4 > 100 µM | Malme-3M > 100 µM | OVCAR-3 > 100 µM | OVCAR-4 > 100 µM | RXF 393 > 100 µM | SF-268 > 100 µM | SF-539 > 100 µM | SK-MEL-28 > 100 µM | SN12C > 100 µM | UO-31 > 100 µM
